These results are taken from PMC5431875, “In situ click chemistry generation of cyclooxygenase-2 inhibitors” (Nature Communications, 2017).

Data set [1] deals with T1, ovine COX-1 (Ovis aries, UniProt P05979).
T1 sequence (P05979 25-600): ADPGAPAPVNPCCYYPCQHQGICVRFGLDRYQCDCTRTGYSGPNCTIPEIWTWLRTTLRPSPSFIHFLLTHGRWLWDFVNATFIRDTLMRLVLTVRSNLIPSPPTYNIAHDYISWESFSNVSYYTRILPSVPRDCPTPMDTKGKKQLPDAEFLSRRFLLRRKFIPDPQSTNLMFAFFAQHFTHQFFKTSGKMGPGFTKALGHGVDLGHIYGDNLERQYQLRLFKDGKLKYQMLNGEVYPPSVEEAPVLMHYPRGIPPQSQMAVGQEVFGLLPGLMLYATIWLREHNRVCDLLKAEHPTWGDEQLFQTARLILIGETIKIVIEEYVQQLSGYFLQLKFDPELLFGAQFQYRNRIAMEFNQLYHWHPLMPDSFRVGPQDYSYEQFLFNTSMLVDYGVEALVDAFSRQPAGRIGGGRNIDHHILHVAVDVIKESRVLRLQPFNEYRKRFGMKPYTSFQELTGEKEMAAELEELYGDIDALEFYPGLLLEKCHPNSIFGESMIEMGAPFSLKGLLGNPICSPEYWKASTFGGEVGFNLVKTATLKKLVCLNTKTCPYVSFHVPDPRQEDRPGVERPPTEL
Nature of the data set: COX inhibitor assay (Cayman 700100), COX-1.
Protocol: (§1) Each compound was assayed in concentration range of 10^−9 M to 10^−3 M, in triplicate. PRISM5 software was used to calculate IC50 values.

Data set [2] has as its target T2, recombinant human COX-2 (Homo sapiens, UniProt P35354).
T2 sequence (P35354 18-604): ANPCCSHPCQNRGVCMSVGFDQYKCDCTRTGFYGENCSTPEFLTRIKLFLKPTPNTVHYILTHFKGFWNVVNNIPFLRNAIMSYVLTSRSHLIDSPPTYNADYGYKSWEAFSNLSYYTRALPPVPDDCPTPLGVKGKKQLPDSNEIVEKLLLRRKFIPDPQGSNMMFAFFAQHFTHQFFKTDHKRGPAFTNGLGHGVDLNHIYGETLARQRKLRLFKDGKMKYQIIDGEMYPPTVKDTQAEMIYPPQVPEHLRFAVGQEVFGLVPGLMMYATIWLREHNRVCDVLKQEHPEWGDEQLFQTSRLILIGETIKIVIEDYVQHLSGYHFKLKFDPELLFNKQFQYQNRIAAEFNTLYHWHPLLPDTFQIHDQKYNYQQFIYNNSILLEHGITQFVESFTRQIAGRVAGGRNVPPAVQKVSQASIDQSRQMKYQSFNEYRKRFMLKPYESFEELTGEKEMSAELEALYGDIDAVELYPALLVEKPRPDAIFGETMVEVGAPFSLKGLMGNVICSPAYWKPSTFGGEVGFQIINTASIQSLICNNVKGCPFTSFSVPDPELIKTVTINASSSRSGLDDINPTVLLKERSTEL
Nature of the data set: COX inhibitor assay (Cayman 700100), COX-2.
Protocol: as §1

Data set [3] addresses T3, COX-2 in HCA-7 cells (Homo sapiens, UniProt P35354).
T3 construct: endogenous in cells; host or cells: HCA-7
T3 sequence (P35354 18-604): T2 sequence (P35354 18-604)
Briefly: Cellular COX-2 inhibitory activity (PGE2 ELISA) in HCA-7 cells. Particulars: mean of three determinations, read-out: Cell COX-2 IC50. The class given is cell-based. The method, then:
Based on the in vitro COX-2 inhibitory data, seventeen compounds (Table 2) were selected and further evaluated for their cellular COX-2 inhibitory activity in COX-2 expressing colorectal cancer cell line HCA-7. […]
HCA-7 cells (colorectal cancer cell line, COX-2 expression is confirmed with immunoblotting). The HCA-7 cells were cultured in T75 flasks using DMEM/F12 (1:1) medium supplemented with 10% (v/v) fetal bovine […]
were washed three times for 5 min with 1 ml PBS. Cells were negatively tested for mycoplasma contamination either by the vendor or in house. […]
vehicle (solvent) at concentration range of 10−9 M to 10−3 M. After 30 min incubation the reaction was stopped on ice and supernatants were taken and COX-2 mediated production of PGE2 was immediately determined […]
concentration is quantified by following manufacturer assay procedure. All experiments were done three times and ±s.e.m. were calculated.
The PRISM5 software was used to calculate IC50 values.

Data set [4] deals with carrageenan-induced rat paw edema. Nature of the data set: Carrageenan-induced rat paw edema assay. Particulars: for Change in behavior and toxic effects: oral doses of the edema assay; for ED50 anti-inflammatory activity: p.o.; for times more potent than celecoxib: versus celecoxib ED50 at 3 h. The data set is classed as in vivo. The protocol: In vivo anti-inflammatory activity was measured using a carrageenan-induced rat paw edema assay. In brief, three to five male Sprague–Dawley rats, 8–11-weeks-old, weighing 180–200 g (Charles-River Canada) were used in each group. […] A dose–response curve was constructed using GraphPad Prism 5.0 and ED50were calculated. […] In vivo anti-inflammatory assays were carried using a protocol approved by the Health Sciences Animal Welfare Committee, University of Alberta, Edmonton, Canada.
(In the carrageenan paw model, swelling and tenderness develop within hours.)

Read-outs that look alike come from different tables or passages of the source.

The molecule `Cc1cc(-n2cc(CC(C)C)nn2)n(-c2ccc(S(C)(=O)=O)cc2)n1` [Compound 23] gave a melting point of 150 to 153 °C. In data set [1], this molecule yielded an IC50 above 100 µM. The IC50 in data set [2] was determined as 6.2 µM. Moreover, the “COX-2 SI (selectivity index)” value in data set [2] ((COX-1 IC50)/(COX-2 IC50)) is given as above 16.1.

As to `Cc1ccc(-c2cn(-c3cc(-c4ccccc4)nn3-c3ccccc3)nn2)cc1` [Compound 11], the melting point lay within 125 to 127 °C. Also, the IC50 in data set [1] is above 100 µM. In addition, in data set [2], the IC50 came to 3.2 µM. Also, in data set [2] ((COX-1 IC50)/(COX-2 IC50)), the “COX-2 SI (selectivity index)” value is above 31.2. Also, the IC50 in data set [3] was 2 µM.

Regarding `Cc1cc(-n2cc(-c3ccc(N)cc3)nn2)n(-c2ccc(S(C)(=O)=O)cc2)n1` [Compound 21, 4-{1-[2-(4-methanesulfonyl-phenyl)-5-methyl-2H-pyrazol-3-yl]-1H-[1,2,3]triazol-4-yl}-phenylamine], the IC50 is above 100 µM in data set [1], 0.05 µM in data set [2] and 0.08 µM in data set [3]. Moreover, the “COX-2 SI (selectivity index)” value in data set [2] is on record as >2,000. Also, the “Change in behavior and toxic effects” value in data set [4] was “No unusual change in behavior and toxic effects”. Also, the figures for the ED50 anti-inflammatory activity in data set [4] (3 h time point) and in data set [4] (5 h time point) were 0.12 mg/kg and 0.34 mg/kg, respectively. The “times more potent than celecoxib” value in data set [4] is on record as above 25 times.

As to `CS(=O)(=O)c1ccc(-n2nc(-c3ccccc3)cc2-n2cc(-c3ccc(F)cc3)nn2)cc1` [Compound 28], the IC50 in data set [1] is above 100 µM; in data set [2] it was 0.14 µM; in data set [3], 0.2 µM. For the same molecule, the “COX-2 SI (selectivity index)” value in data set [2] ((COX-1 IC50)/(COX-2 IC50)) is above 714.2.

For the molecule `CCc1ccc(-c2cn(-c3cc(-c4ccccc4)nn3-c3ccccc3)nn2)cc1` [Compound 12], the melting point was 130 to 133 °C. Also, the IC50 in data set [1] is above 100 µM. In addition, the IC50 in data set [2] turned out to be 18 µM. In data set [2] ((COX-1 IC50)/(COX-2 IC50)), the “COX-2 SI (selectivity index)” value is listed as above 5.5.

As for `COc1ccc(-c2cn(-c3cc(C)nn3-c3ccc(S(C)(=O)=O)cc3)nn2)cc1` [Compound 19], the IC50 was above 100 µM in data set [1] and 26 µM in data set [2]. Also, the “COX-2 SI (selectivity index)” value in data set [2] ((COX-1 IC50)/(COX-2 IC50)) was above 3.84.

On to `Cc1cc(-n2cc(-c3ccc(F)cc3)nn2)n(-c2ccc(S(C)(=O)=O)cc2)n1` [Compound 18, 4-(4-fluorophenyl)-1-[2-(4-methanesulfonyl-phenyl)-5-methyl-2H-pyrazol-3-yl]-1H [1,2,3]triazole], for which the results for the IC50 in data set [1], in data set [2] and in data set [3] were above 100 µM, 0.09 µM and 0.06 µM, respectively. The “COX-2 SI (selectivity index)” value in data set [2] is reported as >1,111.1. Also, the “Change in behavior and toxic effects” value in data set [4] is “No unusual change in behavior and toxic effects”. Also, the results for the ED50 anti-inflammatory activity in data set [4] (3 h time point) and in data set [4] (5 h time point) were 0.44 mg/kg and 0.99 mg/kg, respectively. Besides, the “times more potent than celecoxib” value in data set [4] is reported as above 25 times.

`Cc1cc(-n2cc(-c3ccccc3)nn2)n(-c2ccc(S(C)(=O)=O)cc2)n1` [Compound 16] gave a melting point of 146 to 148 °C. Further, the IC50 in data set [1] was above 100 µM. In addition, the IC50 in data set [2] is 10 µM. Moreover, in data set [2] ((COX-1 IC50)/(COX-2 IC50)), the “COX-2 SI (selectivity index)” value is reported as above 10.

As to `Cc1cc(-n2cc(-c3ccc(N)cc3)nn2)n(-c2ccccc2)n1` [Compound 33], the IC50 in data set [1] is 57.9 µM; in data set [2], 8.6 µM; in data set [3] it was 0.1 µM. The “COX-2 SI (selectivity index)” value in data set [2] ((COX-1 IC50)/(COX-2 IC50)) came to 6.73.

Take `Cc1cc(-n2cc(CN3CCCCC3)nn2)n(-c2ccc(S(C)(=O)=O)cc2)n1` [Compound 25]: the IC50 in data set [1] is above 100 µM; in data set [2] it was 5.2 µM; in data set [3], 11 µM. Further, the “COX-2 SI (selectivity index)” value in data set [2] ((COX-1 IC50)/(COX-2 IC50)) is listed as above 19.2.

`CS(=O)(=O)c1ccc(-n2nc(-c3ccccc3)cc2-n2cc(-c3ccc(N)cc3)nn2)cc1` [Compound 29]: the IC50 was above 100 µM in data set [1], 2.7 µM in data set [2] and 0.1 µM in data set [3]. In addition, the “COX-2 SI (selectivity index)” value in data set [2] ((COX-1 IC50)/(COX-2 IC50)) is listed as above 37.0.

Take `Cc1ccc(-c2cn(-c3cc(C)nn3-c3ccc(S(C)(=O)=O)cc3)nn2)cc1` [Compound 20]: the IC50 in data set [1] is above 100 µM; in data set [2], 19 µM. The “COX-2 SI (selectivity index)” value in data set [2] ((COX-1 IC50)/(COX-2 IC50)) is recorded as above 5.26.

`COc1ccc(-c2cn(-c3cc(-c4ccccc4)nn3-c3ccccc3)nn2)cc1` [Compound 10]: the IC50 is above 100 µM in data set [1] and 15.2 µM in data set [2]. Moreover, in data set [2] ((COX-1 IC50)/(COX-2 IC50)), the “COX-2 SI (selectivity index)” value is given as above 6.5.

As for `c1ccc(-c2cn(-c3cc(-c4ccccc4)nn3-c3ccccc3)nn2)cc1` [Compound 7], the results for the concentration for half-maximal inhibition (IC50) in data set [1], in data set [2] and in data set [3] were above 100 µM, 0.9 µM and 3 µM, respectively. Further, in data set [2] ((COX-1 IC50)/(COX-2 IC50)), the “COX-2 SI (selectivity index)” value is reported as above 111.1.

`Clc1ccc(-c2cn(-c3cc(-c4ccccc4)nn3-c3ccccc3)nn2)cc1` [Compound 8] gave a melting point of 134 to 136 °C. In data set [1], the IC50 was above 100 µM. In addition, the concentration for half-maximal inhibition (IC50) in data set [2] amounted to 0.16 µM. For the same molecule, the “COX-2 SI (selectivity index)” value in data set [2] ((COX-1 IC50)/(COX-2 IC50)) was above 625. For the same molecule, the IC50 in data set [3] was 4 µM.

`Cc1cc(-n2cc(CN3CCOCC3)nn2)n(-c2ccc(S(C)(=O)=O)cc2)n1` [Compound 24] showed a melting point of 172 to 174 °C. This molecule displayed an IC50 in data set [1] above 100 µM. Besides, the IC50 in data set [2] amounted to 0.82 µM. Further, the “COX-2 SI (selectivity index)” value in data set [2] ((COX-1 IC50)/(COX-2 IC50)) is above 121.9. Also, the IC50 in data set [3] is 0.7 µM.

Turning to `Fc1ccc(-c2cn(-c3cc(-c4ccccc4)nn3-c3ccccc3)nn2)cc1` [Compound 9], the melting point was 129 to 131 °C. The IC50 in data set [1] was above 100 µM. Besides, in data set [2], the IC50 was 0.14 µM. Moreover, the “COX-2 SI (selectivity index)” value in data set [2] ((COX-1 IC50)/(COX-2 IC50)) is given as above 714.2. The IC50 in data set [3] was 2 µM.

`Cc1cc(-n2cc(-c3ccc(Cl)cc3)nn2)n(-c2ccc(S(C)(=O)=O)cc2)n1` [Compound 17] displayed a melting point of 145 to 148 °C. In data set [1], this molecule gave an IC50 above 100 µM. For the same molecule, the IC50 in data set [2] is 1.1 µM. Besides, the “COX-2 SI (selectivity index)” value in data set [2] ((COX-1 IC50)/(COX-2 IC50)) is listed as above 90.9. In addition, in data set [3], the IC50 is 1 µM.

As to `Cc1cc(-n2cc(-c3ccc(F)cc3)nn2)n(-c2ccccc2)n1` [Compound 32], the results for the IC50 in data set [1], in data set [2] and in data set [3] were 45.5 µM, 12 µM and 0.1 µM, respectively. The “COX-2 SI (selectivity index)” value in data set [2] ((COX-1 IC50)/(COX-2 IC50)) came to 3.7.

`Cc1cc(-n2cc(-c3ccc(C(F)(F)F)cc3)nn2)n(-c2ccc(S(C)(=O)=O)cc2)n1` [Compound 22] registered a melting point of 209 to 211 °C. In addition, the IC50 in data set [1] is above 100 µM. In data set [2], the IC50 came to 0.22 µM. The “COX-2 SI (selectivity index)” value in data set [2] ((COX-1 IC50)/(COX-2 IC50)) was above 454.5. Also, in data set [3], the IC50 was found to be 0.15 µM.

The melting point is the temperature, or range, at which the solid turns liquid. What is called IC50 is the concentration at which inhibition is half-maximal.
